Measurements taken from ChEMBL document CHEMBL1138234, “Planarity and constraint of the carbonyl groups in 1,2-diones are determinants for selective inhibition of human carboxylesterase 1” (J Med Chem, 2007).

Legend:
Liver carboxylesterase 1 = target: T1, Liver carboxylesterase 1 (Homo sapiens, UniProt P23141); assay: Inhibition of human carboxylesterase 1
T1 sequence (P23141 whole entry): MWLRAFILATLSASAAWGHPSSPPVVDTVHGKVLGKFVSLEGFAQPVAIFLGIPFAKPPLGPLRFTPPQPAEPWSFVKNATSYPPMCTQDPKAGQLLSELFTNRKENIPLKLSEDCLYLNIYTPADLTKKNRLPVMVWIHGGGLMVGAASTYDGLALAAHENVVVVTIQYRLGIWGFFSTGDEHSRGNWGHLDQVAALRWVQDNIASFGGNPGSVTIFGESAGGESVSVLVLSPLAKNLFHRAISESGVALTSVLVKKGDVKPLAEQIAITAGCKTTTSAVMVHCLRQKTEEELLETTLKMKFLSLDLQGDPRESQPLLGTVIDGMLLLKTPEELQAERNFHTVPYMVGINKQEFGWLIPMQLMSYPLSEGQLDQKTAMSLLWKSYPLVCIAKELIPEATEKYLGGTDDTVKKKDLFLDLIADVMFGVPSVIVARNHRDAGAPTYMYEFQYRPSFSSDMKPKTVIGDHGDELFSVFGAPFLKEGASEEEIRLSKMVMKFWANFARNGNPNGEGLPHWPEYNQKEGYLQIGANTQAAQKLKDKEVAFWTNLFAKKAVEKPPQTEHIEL

[1] = Inhibition of human intestinal carboxylesterase
Acetylcholinesterase = Acetylcholinesterase (Homo sapiens, UniProt P22303); assay: Inhibition of human acetylcholinesterase 1
Cholinesterase = Cholinesterase (Homo sapiens, UniProt P06276); assay: Inhibition of human butyrylcholinesterase
Chain of Cholinesterase (P06276 whole entry): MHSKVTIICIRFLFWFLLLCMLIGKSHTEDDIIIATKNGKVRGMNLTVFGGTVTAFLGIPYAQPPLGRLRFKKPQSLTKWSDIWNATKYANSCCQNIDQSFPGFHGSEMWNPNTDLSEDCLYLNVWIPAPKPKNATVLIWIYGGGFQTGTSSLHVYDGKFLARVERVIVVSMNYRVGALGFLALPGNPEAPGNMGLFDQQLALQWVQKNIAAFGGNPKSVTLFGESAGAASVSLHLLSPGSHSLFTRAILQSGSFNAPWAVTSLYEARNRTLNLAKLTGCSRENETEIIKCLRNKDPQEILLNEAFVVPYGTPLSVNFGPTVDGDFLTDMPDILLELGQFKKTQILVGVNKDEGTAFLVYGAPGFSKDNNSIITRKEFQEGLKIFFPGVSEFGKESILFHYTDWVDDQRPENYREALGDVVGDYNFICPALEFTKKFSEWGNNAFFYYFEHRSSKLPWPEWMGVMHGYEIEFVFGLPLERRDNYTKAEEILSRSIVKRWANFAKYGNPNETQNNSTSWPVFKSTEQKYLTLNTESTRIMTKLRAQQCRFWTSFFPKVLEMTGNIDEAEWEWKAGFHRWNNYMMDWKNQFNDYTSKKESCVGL

Chain of Acetylcholinesterase (P22303 whole entry): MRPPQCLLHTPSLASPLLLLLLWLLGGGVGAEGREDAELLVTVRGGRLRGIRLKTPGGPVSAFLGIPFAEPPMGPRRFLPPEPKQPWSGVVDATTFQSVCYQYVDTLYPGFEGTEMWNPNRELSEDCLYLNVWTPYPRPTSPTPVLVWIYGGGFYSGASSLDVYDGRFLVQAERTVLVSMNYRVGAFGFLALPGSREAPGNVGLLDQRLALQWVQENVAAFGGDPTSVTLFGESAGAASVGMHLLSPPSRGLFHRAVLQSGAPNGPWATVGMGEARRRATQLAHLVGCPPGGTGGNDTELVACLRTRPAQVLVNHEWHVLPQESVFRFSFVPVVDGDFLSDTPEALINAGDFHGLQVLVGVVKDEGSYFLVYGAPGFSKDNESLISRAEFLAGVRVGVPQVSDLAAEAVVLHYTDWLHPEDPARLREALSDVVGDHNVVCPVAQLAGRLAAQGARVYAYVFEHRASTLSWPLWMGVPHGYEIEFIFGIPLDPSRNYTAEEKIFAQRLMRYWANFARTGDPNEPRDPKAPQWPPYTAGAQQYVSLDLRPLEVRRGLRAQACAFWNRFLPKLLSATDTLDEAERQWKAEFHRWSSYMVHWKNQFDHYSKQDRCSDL

SMILES | Ki (Liver carboxylesterase 1) | Ki [1] | Ki (Acetylcholinesterase) | Ki (Cholinesterase)
O=C(C(=O)C1CCCCC1)C1CCCCC1 | 0.072 µM | 0.005 µM | > 100 µM | > 100 µM
O=C1Cc2ccccc2C1=O | 5.24 µM | 5.47 µM | > 100 µM | 2.63 µM
O=C1C(=O)c2ccc([N+](=O)[O-])c3c([N+](=O)[O-])ccc1c23 | 0.57 µM | 0.62 µM | 0.903 µM | 3.1 µM
O=C1C(=O)c2cccc3c2N(CCC3)C1=O | 5.38 µM | > 100 µM | > 100 µM | > 100 µM
COc1ccccc1C(=O)C(=O)c1ccccc1OC | > 100 µM | > 100 µM | – | > 100 µM
O=C1C(=O)c2c3ccccc3cc3cccc1c23 | 0.0015 µM | 0.0077 µM | > 100 µM | > 100 µM
O=C1C(=O)c2cccnc2-c2ncccc21 | 5.4 µM | > 100 µM | > 100 µM | > 100 µM
COc1ccc(C(=O)C(=O)c2ccc(C(=O)O)cc2)cc1 | – | – | > 100 µM | > 100 µM
O=C1C(=O)c2ccccc2CCc2ccccc21 | 2.98 µM | 6.15 µM | > 100 µM | > 100 µM
CCOc1ccc(C(=O)C(=O)c2ccc(OCC)cc2)cc1 | > 100 µM | 1.42 µM | > 100 µM | > 100 µM
O=C(C(=O)c1ccc([N+](=O)[O-])cc1)c1ccc([N+](=O)[O-])cc1 | 9.8 µM | 0.47 µM | > 100 µM | > 100 µM
Cc1cc(C)c(C(=O)C(=O)c2c(C)cc(C)cc2C)c(C)c1 | > 100 µM | 4.04 µM | > 100 µM | > 100 µM
O=C1C(=O)N2CCCc3cccc1c32 | 1.54 µM | 4.13 µM | > 100 µM | > 100 µM
O=C1C(=O)c2sccc2-c2ccsc21 | 0.15 µM | 0.85 µM | > 100 µM | > 100 µM
O=C1C(=O)c2cc([N+](=O)[O-])ccc2-c2ccccc21 | 0.0159 µM | 0.107 µM | 0.85 µM | 1.67 µM
CC1(C)[C@@H]2CC[C@]1(C)C(=O)C2=O (racemic) | > 100 µM | > 100 µM | > 100 µM | > 100 µM
O=C1C=Cc2ccccc2C1=O [1,2-NAPHTHOQUINONE] | 0.93 µM | 2.4 µM | 0.32 µM | 2.29 µM
O=C1C(=O)c2ccccc2-c2ccccc21 [9,10-PHENANTHRENEQUINONE] | 0.0025 µM | – | > 100 µM | 0.19 µM
O=C1C(=O)c2cccc3cccc1c23 [ACENAPHTHOQUINONE] | 0.031 µM | – | > 100 µM | 2.97 µM
